Measurements as given in ChEMBL document CHEMBL1133291, “The discovery of non-basic atrial natriuretic peptide clearance receptor antagonists. Part 1” (Bioorg Med Chem Lett, 2000).
Numbered stars: 1 amine (or outer) side, 2 acyl side, 3 side chain; on linkers, the order of the positions; unused ones are H or OH. Square brackets hold non-standard residues; d marks the D form. Peptide text beside a SMILES is read from it. * marks the point of attachment. NH(2S-methylbutyl) = CC[C@H](C)CN*; 2Naphthoyl = O=C(c1ccc2ccccc2c1)*; X1 = O=C(Cc1ccc(N[*:1])cc1)[*:2]; PhAc = O=C(Cc1ccccc1)*; X2 = CCC[C@H](C)CN*

Key:
[1] = target: T1, Atrial natriuretic peptide receptor 3 (Homo sapiens, UniProt P17342); experiment: Displacement of [125I]- ANP from the Atrial Natriuretic Peptide Clearance Receptor.; type: tissue-based, Cardiac atrium
T1 sequence (P17342 whole entry): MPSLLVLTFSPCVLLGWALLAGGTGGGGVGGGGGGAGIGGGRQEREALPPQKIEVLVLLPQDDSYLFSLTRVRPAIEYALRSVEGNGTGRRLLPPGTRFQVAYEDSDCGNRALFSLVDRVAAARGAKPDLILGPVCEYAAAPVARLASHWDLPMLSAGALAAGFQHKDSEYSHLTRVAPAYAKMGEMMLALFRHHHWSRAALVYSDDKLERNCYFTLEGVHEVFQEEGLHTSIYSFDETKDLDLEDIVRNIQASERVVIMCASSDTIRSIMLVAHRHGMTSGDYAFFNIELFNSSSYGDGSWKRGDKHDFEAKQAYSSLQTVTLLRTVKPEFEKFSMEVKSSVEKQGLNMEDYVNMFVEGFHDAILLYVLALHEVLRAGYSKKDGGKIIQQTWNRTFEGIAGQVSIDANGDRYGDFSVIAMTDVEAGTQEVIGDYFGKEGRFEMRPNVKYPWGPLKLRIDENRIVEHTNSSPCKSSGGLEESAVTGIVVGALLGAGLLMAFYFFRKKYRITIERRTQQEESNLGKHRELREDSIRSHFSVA

[2] = target: T2, Atrial natriuretic peptide receptor 1 (Homo sapiens, UniProt P16066); experiment: Displacement of [125I]- ANP from the Atrial natriuretic peptide receptor A.; type: tissue-based, Cardiac atrium
T2 sequence (P16066 whole entry): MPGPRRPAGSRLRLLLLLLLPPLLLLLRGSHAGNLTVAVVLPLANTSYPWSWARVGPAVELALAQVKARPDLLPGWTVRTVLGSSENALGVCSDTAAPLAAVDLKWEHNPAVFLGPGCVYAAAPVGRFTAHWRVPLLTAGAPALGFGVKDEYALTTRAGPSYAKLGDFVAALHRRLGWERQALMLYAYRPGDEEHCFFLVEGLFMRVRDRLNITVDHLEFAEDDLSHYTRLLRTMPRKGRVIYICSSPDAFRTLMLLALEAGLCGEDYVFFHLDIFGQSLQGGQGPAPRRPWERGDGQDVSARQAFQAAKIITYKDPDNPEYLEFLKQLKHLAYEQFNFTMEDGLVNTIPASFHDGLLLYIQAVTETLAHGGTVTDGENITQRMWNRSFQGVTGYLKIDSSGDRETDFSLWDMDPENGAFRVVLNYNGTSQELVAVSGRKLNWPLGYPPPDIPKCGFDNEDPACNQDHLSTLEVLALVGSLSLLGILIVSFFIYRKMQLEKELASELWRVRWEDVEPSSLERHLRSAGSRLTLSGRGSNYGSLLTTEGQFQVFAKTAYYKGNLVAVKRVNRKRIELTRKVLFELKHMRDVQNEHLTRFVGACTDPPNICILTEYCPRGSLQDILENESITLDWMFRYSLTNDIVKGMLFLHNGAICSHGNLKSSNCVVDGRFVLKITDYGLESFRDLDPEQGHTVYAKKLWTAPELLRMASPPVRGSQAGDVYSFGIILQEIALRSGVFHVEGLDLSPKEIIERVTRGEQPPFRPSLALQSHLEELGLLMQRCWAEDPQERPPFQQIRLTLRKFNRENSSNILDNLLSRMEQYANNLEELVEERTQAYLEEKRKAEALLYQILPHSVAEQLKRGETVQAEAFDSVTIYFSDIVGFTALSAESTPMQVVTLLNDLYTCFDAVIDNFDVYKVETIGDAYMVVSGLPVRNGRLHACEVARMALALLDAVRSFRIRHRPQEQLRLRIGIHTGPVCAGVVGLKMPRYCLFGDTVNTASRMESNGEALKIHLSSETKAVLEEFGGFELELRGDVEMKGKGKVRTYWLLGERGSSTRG

[3] = Ratio of binding affinity for ANP-CR receptor and ANP-A receptor

SMILES | Ki [1] [nM] | Ki [2] [nM] | Selectivity [3]
CC[C@H](C)[C@@H]1NC(=O)[C@H](C)NC(=O)CNC(=O)CNC(=O)[C@H](Cc2ccccc2)NC(=O)[C@H](N)CSSC[C@H](C(=O)O)NC(=O)CNC(=O)[C@H](CC(C)C)NC(=O)CNC(=O)[C@H](CO)NC(=O)[C@H](CCC(N)=O)NC(=O)[C@H](C)NC(=O)CNC(=O)[C@H]([C@@H](C)CC)NC(=O)[C@H](CCCN=C(N)N)NC(=O)[C@H](CC(=O)O)NC1=O | 0.49 | 0.49 | 
CC[C@H](C)[C@@H]1NC(=O)[C@H](CCCNC(=N)N)NC(=O)[C@H](CC(=O)O)NC(=O)[C@H]([C@@H](C)CC)NC(=O)[C@H](CCCNC(=N)N)NC(=O)CNC(=O)CNC(=O)[C@H](Cc2ccccc2)NC(=O)[C@@H](NC(=O)[C@H](CO)NC(=O)[C@H](CO)NC(=O)[C@@H](N)CCCNC(=N)N)CSSC[C@@H](C(=O)O)NC(=O)[C@H](C)NC(=O)CNC1=O | 1.64 |  | 
CC[C@H](C)[C@@H]1NC(=O)[C@H](CCCN=C(N)N)NC(=O)[C@H](CC(=O)O)NC(=O)[C@H]([C@@H](C)CC)NC(=O)[C@H](CCCN=C(N)N)NC(=O)CNC(=O)CNC(=O)[C@H](Cc2ccccc2)NC(=O)[C@H](NC(=O)[C@H](CO)NC(=O)[C@H](CO)NC(=O)[C@@H](N)CCCN=C(N)N)CSSC[C@H](C(=O)O)NC(=O)[C@H](C)NC(=O)CNC1=O |  | > 10 | 6100
CC[C@H](C)[C@@H]1NC(=O)[C@H](CCCN=C(N)N)NC(=O)[C@H](C)NC(=O)[C@H]([C@@H](C)CC)NC(=O)[C@H](CCCN=C(N)N)NC(=O)CNC(=O)CNC(=O)[C@H](Cc2ccccc2)NC(=O)[C@H](N)CSSC[C@H](C(=O)O)NC(=O)CNC(=O)[C@H](CC(C)C)NC(=O)CNC(=O)[C@H](CO)NC(=O)[C@H](CCC(N)=O)NC(=O)[C@H](C)NC(=O)CNC1=O | 87 | 87 | 
CC[C@H](C)CNC(=O)[C@H](C)NC(=O)[C@H](CC(=O)O)NC(=O)[C@@H](NC(=O)[C@H](C)NC(=O)Cc1ccc(NC(=O)c2ccc3ccccc3c2)cc1)[C@@H](C)CC (2Naphthoyl-[X1]AIDA-{NH(2S-methylbutyl)}) | 65 | 65 | 
CC[C@H](C)CNC(=O)[C@H](CCCN=C(N)N)NC(=O)[C@H](CC(=O)O)NC(=O)[C@@H](NC(=O)[C@H](C)NC(=O)Cc1ccc(NC(=O)c2ccc3ccccc3c2)cc1)[C@@H](C)CC (2Naphthoyl-[X1]AIDR-{NH(2S-methylbutyl)}) | 0.3 | 0.3 | 
CC[C@H](C)CNC(=O)[C@H](CCCN=C(N)N)NC(=O)[C@H](CC(=O)O)NC(=O)[C@H](C)NC(=O)[C@H](CCCN=C(N)N)NC(=O)Cc1ccc(NC(=O)c2ccc3ccccc3c2)cc1 (2Naphthoyl-[X1]RADR-{NH(2S-methylbutyl)}) | 680 | 680 | 
CC[C@H](C)CNC(=O)[C@H](CCCNC(=N)N)NC(=O)[C@H](C)NC(=O)[C@@H](NC(=O)[C@H](CCCNC(=N)N)NC(=O)Cc1ccc(NC(=O)c2ccc3ccccc3c2)cc1)[C@@H](C)CC (2Naphthoyl-[X1]RIAR-{NH(2S-methylbutyl)}) | 62 | 62 | 
CC[C@H](C)CNC(=O)[C@H](C)NC(=O)[C@H](CC(=O)O)NC(=O)[C@@H](NC(=O)[C@H](CCCN=C(N)N)NC(=O)Cc1ccc(NC(=O)c2ccc3ccccc3c2)cc1)[C@@H](C)CC (2Naphthoyl-[X1]RIDA-{NH(2S-methylbutyl)}) | 0.4 | 0.4 | 
CC[C@H](C)[C@H](NC(=O)[C@H](CCCNC(=N)N)NC(=O)Cc1ccc(NC(=O)c2ccc3ccccc3c2)cc1)C(=O)N[C@@H](CC(=O)O)C(=O)N[C@@H](CCCNC(=N)N)C(N)=O (2Naphthoyl-[X1]RIDR-NH2) | 2600 | 2600 | 
CC[C@H](C)CNC(=O)[C@H](CCCN=C(N)N)NC(=O)[C@H](CC(=O)O)NC(=O)[C@@H](NC(=O)[C@H](CCCN=C(N)N)NC(=O)Cc1ccc(NC(=O)c2ccc3ccccc3c2)cc1)[C@@H](C)CC (2Naphthoyl-[X1]RIDR-{NH(2S-methylbutyl)}) | 0.48 | > 10 | > 20000
CCC[C@H](C)CNC(=O)[C@H](CCCNC(=N)N)NC(=O)[C@H](CC(=O)O)NC(=O)[C@@H](NC(=O)[C@H](CCCNC(=N)N)NC(C)=O)[C@@H](C)CC (Ac-RIDR-X2) | 2900 | 2900 | 
CCC[C@H](C)CNC(=O)[C@H](CCCN=C(N)N)NC(=O)[C@H](CC(=O)O)NC(=O)[C@@H](NC(=O)[C@H](CCCN=C(N)N)NC(=O)Cc1ccccc1)[C@@H](C)CC (PhAc-RIDR-X2) | 539 | 539 | 
